In PMC6934184, “Selective DNA-PKcs inhibition extends the therapeutic index of localized radiotherapy and chemotherapy” (The Journal of Clinical Investigation, 2019):

Biological target: T1, EPHA6 (Homo sapiens, UniProt Q9UF33)
T1 construct: purchased Thermo Fisher Scientific (Life Technologies) SelectScreen
Assay: SelectScreen LanthaScreen
Format: binding
Settings: read-out: % displacement
How it was run: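 Percent values come from Thermo SelectScreen profiling of NU5455, combining activity and binding assays. CSF1R was run in Z'LYTE format at Km app ATP, and CAMK1 in Adapta format with ATP listed at 10.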

T1 sequence (Q9UF33 23-1036): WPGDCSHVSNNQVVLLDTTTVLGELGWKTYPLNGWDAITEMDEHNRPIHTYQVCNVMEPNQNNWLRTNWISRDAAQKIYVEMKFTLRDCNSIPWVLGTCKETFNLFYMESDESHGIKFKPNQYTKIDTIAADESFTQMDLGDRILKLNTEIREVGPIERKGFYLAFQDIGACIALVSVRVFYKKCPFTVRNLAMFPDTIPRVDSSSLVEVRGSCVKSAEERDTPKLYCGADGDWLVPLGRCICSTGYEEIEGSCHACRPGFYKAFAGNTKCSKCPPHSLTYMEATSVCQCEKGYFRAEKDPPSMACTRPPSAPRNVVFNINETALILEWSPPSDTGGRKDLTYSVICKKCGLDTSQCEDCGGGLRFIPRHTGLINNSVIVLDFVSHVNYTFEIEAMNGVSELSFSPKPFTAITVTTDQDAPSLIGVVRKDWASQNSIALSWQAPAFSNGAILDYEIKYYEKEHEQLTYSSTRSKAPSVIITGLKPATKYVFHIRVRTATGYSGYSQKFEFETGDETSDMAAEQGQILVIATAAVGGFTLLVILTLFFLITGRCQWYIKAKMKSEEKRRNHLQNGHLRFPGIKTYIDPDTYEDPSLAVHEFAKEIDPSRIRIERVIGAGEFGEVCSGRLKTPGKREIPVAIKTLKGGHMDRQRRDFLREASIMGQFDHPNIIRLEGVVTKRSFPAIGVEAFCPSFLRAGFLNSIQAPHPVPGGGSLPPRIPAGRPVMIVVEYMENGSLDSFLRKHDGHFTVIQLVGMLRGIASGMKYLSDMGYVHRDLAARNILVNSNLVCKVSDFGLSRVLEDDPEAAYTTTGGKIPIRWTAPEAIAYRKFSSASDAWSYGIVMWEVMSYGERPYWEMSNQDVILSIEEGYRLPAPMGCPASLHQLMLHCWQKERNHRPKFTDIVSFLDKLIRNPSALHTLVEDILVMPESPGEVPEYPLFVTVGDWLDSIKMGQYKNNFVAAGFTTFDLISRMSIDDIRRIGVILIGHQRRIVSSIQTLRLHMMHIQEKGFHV

Compound `CN(C(=O)CN1CCOCC1)c1ccc2sc3c(-c4cccc5c(=O)cc(N6CC7CCC(C6)O7)oc45)cccc3c2c1` [NU5455] has an inhibition at 1 µM of 1.6%.
